Assay results as given in patent EP4667467A1, “PROTAC DEGRADERS OF MLLT1 AND/OR MLLT3” (Dark Blue Therapeutics Ltd, priority 2024, dated 2025).

Biological target: T1, MLLT1 (Homo sapiens, UniProt Q03111)
T1 construct: endogenous in cells; host or cells: MV4-11 (ATCC CRL-9591)
T1 sequence (Q03111 1-559): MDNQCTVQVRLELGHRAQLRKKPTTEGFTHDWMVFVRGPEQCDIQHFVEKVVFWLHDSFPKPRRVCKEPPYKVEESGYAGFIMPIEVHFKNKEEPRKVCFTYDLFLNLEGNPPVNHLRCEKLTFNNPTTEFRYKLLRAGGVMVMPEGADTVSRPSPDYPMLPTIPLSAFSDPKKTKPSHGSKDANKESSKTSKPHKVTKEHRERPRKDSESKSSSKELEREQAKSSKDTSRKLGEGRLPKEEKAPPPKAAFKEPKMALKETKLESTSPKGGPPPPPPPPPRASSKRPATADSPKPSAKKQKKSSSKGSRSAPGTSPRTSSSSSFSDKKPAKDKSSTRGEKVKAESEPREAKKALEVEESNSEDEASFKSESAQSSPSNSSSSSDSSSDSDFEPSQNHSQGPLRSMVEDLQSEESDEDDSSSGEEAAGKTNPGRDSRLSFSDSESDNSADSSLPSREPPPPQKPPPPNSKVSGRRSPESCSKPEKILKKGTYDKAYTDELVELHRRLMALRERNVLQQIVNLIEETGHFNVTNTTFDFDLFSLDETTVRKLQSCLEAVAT
Experiment: MLLT1 Degradation Assay (JESS automated chemiluminescent detection, MV4-11 cells)
Type: cell-based
Conditions: 24h, with respect to DMSO control; for MLLT1 % Degradation @ 0.01 µM: 0.01 µM (10 nM) test compound; for MLLT1 % Degradation @ 0.1 µM: 0.1 µM (100 nM) test compound; for MLLT 1 % Degradation @ 1 µM: 1 µM (1000 nM) test compound
Method: MLLT1 degradation efficacy of compounds were tested in an automated chemiluminescent detection system (JESS, Cat# 004-650). […] 10 mM DMSO stocks were prepared, and cells were treated with three concentrations of test compounds viz. 1000, 100 and 10 nM at a final DMSO concentration of 0.1% and incubated for 24h at 37°C, 5% CO2. […] Post run, data were analysed using "Compass for SW" software for chemiluminescent detection. The peak area for each band was used for the calculation of MLLT1 degradation with respect to DMSO control. Data is shown as "MLLT1 % degradation".

Structure (SMILES) | MLLT1 % Degradation @ 0.01 µM | MLLT1 % Degradation @ 0.1 µM | MLLT 1 % Degradation @ 1 µM
CN1CCC[C@@H]1c1cc2cnc(NC(=O)c3ccc(N4CCN(CC#Cc5cccc6c5CN(C5CCC(=O)NC5=O)C6=O)CC4)nc3)cc2[nH]1 (stereo partly drawn) [Example 6, 6-(4-(3-(2-(2,6-dioxopiperidin-3-yl)-1-oxoisoindolin-4-yl)prop-2-yn-1-yl)piperazin-1-yl)-N-(2-((R)-1-methylpyrrolidin-2-yl)-1H-pyrrolo[3,2-c]pyridin-6-yl)nicotinamide] | A (Category A: A ≥ 75% degradation) | A (Category A: A ≥ 75% degradation) | B (Category B: 50% ≤ B < 75% degradation)
CN1CCC[C@@H]1c1cc2cnc(NC(=O)c3ccc(CCCCC#Cc4cccc(C(=O)N[C@H]5CCC(=O)NC5=O)n4)cc3)cc2[nH]1 [Example 7, N-((S)-2,6-dioxopiperidin-3-yl)-6-(6-(4-((2-((R)-1-methylpyrrolidin-2-yl)-1H-pyrrolo[3,2-c]pyridin-6-yl)carbamoyl)phenyl)hex-1-yn-1-yl)picolinamide] | A (Category A: A ≥ 75% degradation) | A (Category A: A ≥ 75% degradation) | A (Category A: A ≥ 75% degradation)
CN1CCC[C@@H]1c1cc2cnc(NC(=O)c3ccc(CCCCC#Cc4cccc5c4CN(C4CCC(=O)NC4=O)C5=O)cc3)cc2[nH]1 (stereo partly drawn) [Example 8, 4-(6-(2-(2,6-dioxopiperidin-3-yl)-1-oxoisoindolin-4-yl)hex-5-yn-1-yl)-N-(2-((R)-1-methylpyrrolidin-2-yl)-1H-pyrrolo[3,2-c]pyridin-6-yl)benzamide] | A (Category A: A ≥ 75% degradation) | A (Category A: A ≥ 75% degradation) | A (Category A: A ≥ 75% degradation)
CN1CCC[C@@H]1c1cc2cnc(NC(=O)c3ccc(CCCCC#Cc4cccc5c4CN(C4CCC(=O)NC4=O)C5=O)nc3)cc2[nH]1 (stereo partly drawn) [Example 10, 6-(6-(2-(2,6-dioxopiperidin-3-yl)-1-oxoisoindolin-4-yl)hex-5-yn-1-yl)-N-(2-((R)-1-methylpyrrolidin-2-yl)-1H-pyrrolo [3,2-c]pyridin-6-yl) nicotinamide] | A (Category A: A ≥ 75% degradation) | A (Category A: A ≥ 75% degradation) | B (Category B: 50% ≤ B < 75% degradation)
CN1CCC[C@@H]1c1cc2cnc(NC(=O)c3ccc(CCCC#Cc4ccc(C(=O)N[C@H]5CCC(=O)NC5=O)nc4)cc3)cc2[nH]1 [Example 11, N-((S)-2,6-dioxopiperidin-3-yl)-5-(5-(4-((2-((R)-1-methylpyrrolidin-2-yl)-1H-pyrrolo[3,2-c]pyridin-6-yl)carbamoyl)phenyl)pent-1-yn-1-yl)picolinamide] | D (Category D: D < 25% degradation) | C (Category C: 25% ≤ C < 50% degradation) | B (Category B: 50% ≤ B < 75% degradation)
CN1CCC[C@@H]1c1cc2cnc(NC(=O)c3ccc(CCCC#Cc4cccc5c4CN(C4CCC(=O)NC4=O)C5=O)nc3)cc2[nH]1 (stereo partly drawn) [Example 12, 6-(5-(2-(2,6-dioxopiperidin-3-yl)-1-oxoisoindolin-4-yl)pent-4-yn-1-yl)-N-(2-((R)-1-methylpyrrolidin-2-yl)-1H-pyrrolo[3,2-c]pyridin-6-yl)nicotinamide] | B (Category B: 50% ≤ B < 75% degradation) | A (Category A: A ≥ 75% degradation) | A (Category A: A ≥ 75% degradation)
CN1CCC[C@@H]1c1[nH]c2cc(NC(=O)CCCCCCC#Cc3cccc4c3CN(C3CCC(=O)NC3=O)C4=O)ncc2c1Cl (stereo partly drawn) [Example 13, N-(3-chloro-2-((R)-1-methylpyrrolidin-2-yl)-1H-pyrrolo [3,2-c]pyridin-6-yl)-9-(2-(2,6-dioxopiperidin-3-yl)-1-oxoisoindolin-4-yl) non-8-ynamide] | A (Category A: A ≥ 75% degradation) | A (Category A: A ≥ 75% degradation) | A (Category A: A ≥ 75% degradation)
CN1CCC[C@@H]1c1cc2cnc(NC(=O)c3cccc(C4CCN(c5cccc6c5C(=O)N(C5CCC(=O)NC5=O)C6=O)CC4)c3)cc2[nH]1 (stereo partly drawn) [Example 14, 3-(1-(2-(2,6-dioxopiperidin-3-yl)-1,3-dioxoisoindolin-4-yl)piperidin-4-yl)-N-(2-((R)-1-methylpyrrolidin-2-yl)-1H-pyrrolo[3,2-c]pyridin-6-yl)benzamide] | B (Category B: 50% ≤ B < 75% degradation) | A (Category A: A ≥ 75% degradation) | A (Category A: A ≥ 75% degradation)
CN1CCC[C@@H]1c1cc2cnc(NC(=O)c3ccc(C4CCN(c5cccc6c5C(=O)N(C5CCC(=O)NC5=O)C6=O)CC4)cc3)cc2[nH]1 (stereo partly drawn) [Example 15, 4-(1-(2-(2,6-dioxopiperidin-3-yl)-1,3-dioxoisoindolin-4-yl)piperidin-4-yl)-N-(2-((R)-1-methylpyrrolidin-2-yl)-1H-pyrrolo[3,2-c]pyridin-6-yl)benzamide] | B (Category B: 50% ≤ B < 75% degradation) | A (Category A: A ≥ 75% degradation) | B (Category B: 50% ≤ B < 75% degradation)
CN1CCC[C@@H]1c1cc2cnc(NC(=O)c3ccc(N4CCC(CC#Cc5cccc6c5CN(C5CCC(=O)NC5=O)C6=O)CC4)nc3)cc2[nH]1 (stereo partly drawn) [Example 16, 6-(4-(3-(2-(2,6-dioxopiperidin-3-yl)-1-oxoisoindolin-4-yl)prop-2-yn-1-yl)piperidin-1-yl)-N-(2-((R)-1-methylpyrrolidin-2-yl)-1H-pyrrolo[3,2-c]pyridin-6-yl)nicotinamide] | A (Category A: A ≥ 75% degradation) | A (Category A: A ≥ 75% degradation) | B (Category B: 50% ≤ B < 75% degradation)

Second part, the molecule after the results:

MLLT1 % Degradation @ 0.01 µM | MLLT1 % Degradation @ 0.1 µM | MLLT 1 % Degradation @ 1 µM | Structure (SMILES)
A (Category A: A ≥ 75% degradation) | A (Category A: A ≥ 75% degradation) | A (Category A: A ≥ 75% degradation) | CN1CCC[C@@H]1c1cc2cnc(NC(=O)c3ccc(CCCCC#Cc4cccc(N5CCC(=O)NC5=O)n4)cc3)cc2[nH]1 [Example 9, (R)-4-(6-(6-(2,4-dioxotetrahydropyrimidin-1(2H)-yl)pyridin-2-yl)hex-5-yn-1-yl)-N-(2-(1-methylpyrrolidin-2-yl)-1H-pyrrolo[3,2-c]pyridin-6-yl)benzamide]
A (Category A: A ≥ 75% degradation) | A (Category A: A ≥ 75% degradation) | A (Category A: A ≥ 75% degradation) | CN1CCC[C@@H]1c1cc2cnc(NC(=O)c3ccc(N4CCC(C#Cc5cccc6c5CN(C5CCC(=O)NC5=O)C6=O)CC4)nc3)cc2[nH]1 (stereo partly drawn) [Example 17, 6-(4-((2-(2,6-dioxopiperidin-3-yl)-1-oxoisoindolin-4-yl)ethynyl)piperidin-1-yl)-N-(2-((R)-1-methylpyrrolidin-2-yl)-1H-pyrrolo[3,2-c]pyridin-6-yl)nicotinamide]
